Measured values: patent publication US10159678B2, “Methods to decrease susceptibility to asthmatic bronchoconstriction” (Cornell University, priority 2012, dated 2018)

Columns and labels:
human bronchial rings = assay: Myograph contractile response of human bronchial rings in myriocin-containing bath; settings: 90 min in myriocin-containing bath solution (10 μM), then methacholine; FIG. 3E
Protocol: Human bronchial tissues were obtained from patients (n=15) undergoing surgery for lung cancer. The study was approved by the IRB at Weill Cornell Medical College. Within 30 min following resection, segments of bronchi with an inner diameter of 3-5 mm were taken from areas as far removed from the malignancy as possible. Bronchi were placed in oxygenated KH and following removal of adhering fat and connective tissues four to eight rings of the same bronchus were prepared. Each set of bronchial rings was suspended under an initial tension of 300-350 mg in KH solution containing 0.01% BSA, bubbled with 95% O2 and 5% CO2 at 37° C. and then washed every 15 min for 1 h. K^+ solution (80 mM) was then used to achieve maximum contraction and myriocin (10 μM) or solvent was added 30 min after washout of the K^+ solution. Methacholine (0.01-1 μM) was added after 90 minutes. Experiments were conducted on parallel groups of four rings at a time. Contractile responses were measured and analyzed as for the murine rings.

BALB/c mice = assay: Lung mechanics and airway reactivity to inhaled methacholine after intranasal myriocin; assay type: in vivo; settings: 3 h after intranasal myriocin (2 or 20 μg)
Protocol: Animal studies described herein were conducted under protocols approved by the Institutional Animal Care and Use Committee of Weill Cornell Medical College. Female BALB/c mice, obtained from Taconic Farms (Tarrytown, N.Y.). Animals were housed under specific pathogen-free conditions and used at 6 to 8 weeks of age. Myriocin (Enzo Life Sciences, Plymouth Meeting, Pa.) was freshly prepared from a 10 mM stock solution to a 1 mM or 100 μM solution in 0.9% saline and 0.05% fatty acid free bovine serum albumin and 50 μl were administered intranasally. Control animals received the vehicle solution (1% DMSO in 0.9% saline, 0.5% BSA) or were naïve. […]
Mice were anaesthetized with pentobarbital (100 mg/kg; American Pharmaceutical Partners, Los Angeles, Calif.), tracheostomized and mechanically ventilated at a rate of 150 breaths/min, a tidal volume of 10 ml/kg and positive end-expiratory pressure of 2-3 cm H2O using a computer-controlled animal ventilator (Sireq, Montreal, Canada). […] Rn and G were also assessed following increasing doses of methacholine (3.125, 12.5 and 50 mg/ml).
Experiments were then performed to assess if administration of myriocin directly to the respiratory tract affects pulmonary function. […] Airway resistance (Rn) in response to increasing doses of inhaled methacholine was determined 3 h after myriocin administration. […]

[1] = test system: lung sphingolipid composition; assay: Lung sphingolipid composition by UPLC-MS/MS after intranasal myriocin; assay type: in vivo, BALB/c mice
Protocol: Animal studies described herein were conducted under protocols approved by the Institutional Animal Care and Use Committee of Weill Cornell Medical College. Female BALB/c mice, obtained from Taconic Farms (Tarrytown, N.Y.). Animals were housed under specific pathogen-free conditions and used at 6 to 8 weeks of age. Myriocin (Enzo Life Sciences, Plymouth Meeting, Pa.) was freshly prepared from a 10 mM stock solution to a 1 mM or 100 μM solution in 0.9% saline and 0.05% fatty acid free bovine serum albumin and 50 μl were administered intranasally. Control animals received the vehicle solution (1% DMSO in 0.9% saline, […] BSA) or were naïve. Three hours later the animals underwent pulmonary function testing and were sacrificed. Heterozygous SPT-deficient mice (Sptlc2^+/−) or homozygous controls (Sptlc2^+/+) were bred, identified by genotyping using procedures like those described by Hojjati et al. (2005) and used at 6-8 weeks of age.
Lungs were harvested following perfusion with phosphate-buffered saline (PBS, Invitrogen, Carlsbad, Calif.) containing 0.6 mM ethylenediamine tetra acetic acid dipotassium salt dehydrate (EDTA, Invitrogen) via the right ventricle to remove blood cells from the pulmonary circulation. The lungs were then homogenized in normal PBS. De-novo sphingolipid synthesis was assessed by evaluating incorporation of ^3H-serine (24.1 Ci/mmol, Perkin Elmer (Boston, Mass.) into ceramide and sphingosine. Sphingolipid synthesis through the recycling pathway was assessed by evaluating incorporation of ^3H-sphingosine (18.2 Ci/mmol, Perkin Elmer (Boston, Mass.) into ceramide and sphingomyelin. In both assays, equal amounts of fresh lung homogenates were incubated for 30 min at 37° C. with 2 μl of the radioactive tracer, followed by lyophilization to determine dry weight, lipid extraction with chloroform/methanol/water (1:1:0.9). The organic phase was evaporated, dissolved in 50 μl chloroform/methanol (1:1) spotted on […] chromatography plates (TLC) (Merck Silica gel 60, Darmstadt, Germany) and chromatographed for 25 min with chloroform-methanol-ammonium hydroxide (65:25:4 v/v). Ceramides, sphingomyelin, phosphatidylserine, sphinganine and sphingosine, all dissolved at 1 μg/μl were run as standards. The lipids were identified according to their Rf values after visualization in an iodine vapor tank. The TLC plate was cut at the corresponding lipid spot, mixed with scintillation fluid (Ultima Gold, Packard Instrument Company, CT) and analyzed in a scintillation counter (Perkin Elmer Wallac, Gaithersburg, Md.). Results are calculated as dpm/mg protein.
Sphinganine, sphingosine, sphinganine-1-phosphate, sphingosine-1-phosphate, ceramides (Cer16, Cer18, Cer20, Cer22, Cer24:1, Cer24) were quantified in lung homogenates by ultra-performance liquid chromatography-tandem mass spectrometry (UPLC-MS/MS), on a Waters Xevo, equipped with a Waters BEH Phenyl UPLC Column (ACQUITY UPLC BEH Phenyl Column, 3.0×100 mm, 1.7 μm and a ACQUITY BEH Phenyl VanGuard Pre-column, 2.1×5 mm, 1.7 μm in the Columbia University Lipid Core as reported by Shaner et al. (2009) with minor modifications. […] of an internal standard mix (Avanti Polar Lipids, Mix 1) in ethanol, 0.5 ml methanol and 0.25 ml chloroform were added to the lyophilized lung homogenates and sonicated for 12 h at 48° C. After centrifugation at 10,000 g for 5 min, the supernatant was evaporated in a glass tube and resuspended in 100 μl methanol. 10 μl were injected into the UPLC-MS/MS. Results are calculated as pmol/mg.
Myriocin is a potent and specific inhibitor of SPT that affects SPT independent of orm. To assess if direct administration of myriocin to the respiratory tract affects pulmonary sphingolipid synthesis, the lung sphingolipid composition was determined by ultra-performance liquid chromatography-tandem mass spectrometry (UPLC-MS/MS) 3 h following intranasal administration of myriocin.

Q: How did the “contractile force of human bronchial rings” value (human bronchial rings) turn out when CCCCCCC(=O)CCCCCC/C=C/C[C@@H](O)[C@H](O)[C@@](N)(CO)C(=O)O [myriocin] was run?
A: Its value is “increased contractile force”.

Q: And the “airway reactivity (airway resistance Rn in response to inhaled methacholine)” value (BALB/c mice; FIG. 3A)?
A: Its value is “increased”.

Q: And the “Baseline lung mechanical properties, such as static compliance” value (BALB/c mice; FIG. 3B)?
A: Its value is “not altered”.

Q: And the “sphinganine in the lung” value ([1]; 3 h following intranasal administration of myriocin (20 μg), FIG. 1A)?
A: The value was “reduced”.

Q: What about the “sphingosine levels in the lung” value ([1]; 3 h following intranasal myriocin (20 μg), FIG. 1B) of the same compound?
A: The value was “not significantly decreased”.

Q: And the “sphinganine-1P (Sa1P) levels in the lung” value ([1]; 3 h following intranasal myriocin (20 μg), FIG. 1C)?
A: Its value is “not significantly decreased”.

Q: What about the “sphingosine-1P (S1P) levels in the lung” value ([1]; 3 h following intranasal myriocin (20 μg), FIG. 1D) of the same compound?
A: The value was “not significantly decreased”.

Q: And the “sum of ceramides (C14, C16, C18, C20, C22, C24, C24:1) in the lung” value ([1]; 3 h following intranasal myriocin (20 μg), FIG. 1E-1G)?
A: The value was “decreased”.

Q: What about the “certain individual ceramides in the lung” value ([1]; 3 h following intranasal myriocin, FIGS. 1F and 1G) of the same compound?
A: Its value is “individually decreased”.
